# Data taken from patent publication US20180246095A1, “COMPOSITIONS AND METHODS FOR DIAGNOSING AND TREATING LYME DISEASE” (priority 2015, published 2018).
# System: B. burgdorferi B31
# Experiment: RNA-Seq gene expression profile of B. burgdorferi persisters that survived antibiotic treatment, compared with drug free control
# Format: cell-based, Borrelia burgdorferi
# Description: RNA Sequencing (RNA-Seq) was performed to determine the gene expression profile of B. burgdorferi persisters that survived antibiotic treatment using next generation sequencing to shed light on the mechanisms of B. burgdorferi persistence. B. burgdorferi B31 cultures were grown for 5 days to 1×10^7 spirochetes/ml in BSK-H medium followed by treatment with 50 μg/ml doxycycline or 50 μg/ml amoxicillin for 6 days. Triplicate biological samples were used for each group. The total RNA was extracted and ribosomal RNA was removed prior to preparation of cDNA libraries for Illumina sequencing. […] The RNA-Seq data was analyzed by BLAST analysis and mapped to KEGG pathways.
compound,measurement,setting,value
CC1(C)S[C@@H]2[C@H](NC(=O)[C@H](N)c3ccc(O)cc3)C(=O)N2[C@H]1C(=O)O [Amo],Expression BB_U05,"gene BB_U05, PF-32 protein",0
same,Expression BB_U06,"gene BB_U06, plasmid partition protein",0
same,Expression BB_U07,"gene BB_U07, protein BBC01",0
same,Expression BB_U08,"gene BB_U08, SUA5 subfamily protein",0
same,Expression BB_U09,"gene BB_U09, TM2 family protein",0
same,Expression BB_U10,"gene BB_U10, protein BBC01",0
same,Expression BB_U11,"gene BB_U11, Sua5/YciO/YrdC/YwlC family protein",0
same,Expression BB_t19,"gene BB_t19, Ser tRNA",7
same,Expression BB_t26,"gene BB_t26, Arg tRNA",0
same,Expression BB_t27,"gene BB_t27, Leu tRNA",2
same,Expression BB_L35,"gene bdrO BB_L35, protein BdrO",0
same,Expression BB_N34,"gene bdrQ BB_N34, BdrQ",1
same,Expression BB_Q34,"gene bdrW BB_Q34, protein BdrW protein",1
same,Expression BB_L23,"gene blyA BB_L23, holin protein",0
same,Expression BB_L24,"gene blyB BB_L24, holin protein",0
same,Expression BB_L36,"gene bppA BB_L36, protein BppA",0
same,Expression BB_L37,"gene bppB BB_L37, protein BppB",1
same,Expression BB_Q47,"gene erpX BB_Q47, protein ErpX",0
same,Expression BB_L28,"gene mlpH BB_L28, lipoprotein",1
same,Expression BB_t16,"gene tRNA-Arg-3 BB_t16, Arg tRNA",3
same,Expression BB_t08,"gene tRNA-His-1 BB_t08, His tRNA",0
same,Expression BB_t07,"gene tRNA-Lys-2 BB_t07, Lys tRNA",0
same,Expression BB_t14,"gene tRNA-Thr-2 BB_t14, Thr tRNA",0
same,Expression BB_t03,"gene tRNA-Trp-1 BB_t03, Trp tRNA",1
same,Expression BB_I16,"gene vraA BB_I16, repetitive antigen A",0
same,Expression BB_0368,glycerol-3-phosphate dehydrogenase,95
same,Expression BB_0185,glycoprotease family protein,50
same,Expression blyB BB_R24,hemolysin accessory protein,0
same,Expression blyA BB_M23,holin protein,0
same,Expression blyA BB_N23,holin protein,50
same,Expression blyA BB_P23,holin protein,64
same,Expression blyA BB_S23,holin protein,0
same,Expression blyB BB_N24,holin protein,0
same,Expression blyB BB_S24,holin protein,0
same,Expression BB_0024,hypothetical protein,390
same,Expression BB_0029,hypothetical protein,114
same,Expression BB_0044,hypothetical protein,0
same,Expression BB_0102,hypothetical protein,53
same,Expression BB_0162,hypothetical protein,401
same,Expression BB_0238,hypothetical protein,26
same,Expression BB_0242,hypothetical protein,2
same,Expression BB_0252,hypothetical protein,497
same,Expression BB_0308,hypothetical protein,0
same,Expression BB_0322,hypothetical protein,1
same,Expression BB_0331,hypothetical protein,5
same,Expression BB_0336,hypothetical protein,61
same,Expression BB_0352,hypothetical protein,66
same,Expression BB_0367,hypothetical protein,176
same,Expression BB_0373,hypothetical protein,4
same,Expression BB_0378,hypothetical protein,129
same,Expression BB_0428,hypothetical protein,627
same,Expression BB_0525,hypothetical protein,73
same,Expression BB_0549,hypothetical protein,0
same,Expression BB_0576,hypothetical protein,140
same,Expression BB_0646,hypothetical protein,444
same,Expression BB_0663,hypothetical protein,533
same,Expression BB_0673,hypothetical protein,15
same,Expression BB_0707,hypothetical protein,35
same,Expression BB_0739,hypothetical protein,51
same,Expression BB_0799,hypothetical protein,2
same,Expression BB_0824,hypothetical protein,98
same,Expression BB_0838a,hypothetical protein,4
same,Expression BB_A09,hypothetical protein,50
same,Expression BB_A13,hypothetical protein,256
same,Expression BB_A61,hypothetical protein,133
same,Expression BB_D22,hypothetical protein,5
same,Expression BB_D24,hypothetical protein,0
same,Expression BB_D0027,hypothetical protein,0
same,Expression BB_G33,hypothetical protein,13
same,Expression BB_G34,hypothetical protein,439
same,Expression BB_H05,hypothetical protein,23
same,Expression BB_H27,hypothetical protein,4
same,Expression BB_J13,hypothetical protein,5
same,Expression BB_J19,hypothetical protein,3
same,Expression BB_J24,hypothetical protein,0
same,Expression BB_J46,hypothetical protein,17
same,Expression BB_J47,hypothetical protein,69
same,Expression BB_J0056,hypothetical protein,13
same,Expression BB_L19,hypothetical protein,24
same,Expression BB_L20,hypothetical protein,22
same,Expression BB_L25,hypothetical protein,13
same,Expression BB_L26,hypothetical protein,1
same,Expression BB_L41,hypothetical protein,0
same,Expression BB_M12,hypothetical protein,0
same,Expression BB_M13,hypothetical protein,0
same,Expression BB_M14,hypothetical protein,0
same,Expression BB_M15,hypothetical protein,0
same,Expression BB_M17,hypothetical protein,0
same,Expression BB_M25,hypothetical protein,0
same,Expression BB_M30,hypothetical protein,0
same,Expression BB_M39,hypothetical protein,0
same,Expression BB_M41,hypothetical protein,0
same,Expression BB_N20,hypothetical protein,68
same,Expression BB_N30,hypothetical protein,1
same,Expression BB_N41,hypothetical protein,47
same,Expression BB_O02,hypothetical protein,0
same,Expression BB_O03,hypothetical protein,0
same,Expression BB_O04,hypothetical protein,0
same,Expression BB_O05,hypothetical protein,0
same,Expression BB_O06,hypothetical protein,0
same,Expression BB_O08,hypothetical protein,0
same,Expression BB_O09,hypothetical protein,0
same,Expression BB_O10,hypothetical protein,0
same,Expression BB_O13,hypothetical protein,0
same,Expression BB_O29,hypothetical protein,46
same,Expression BB_O31,hypothetical protein,0
same,Expression BB_P20,hypothetical protein,288
same,Expression BB_P21,hypothetical protein,291
same,Expression BB_P30,hypothetical protein,5
same,Expression BB_Q27,hypothetical protein,36
same,Expression BB_Q28,hypothetical protein,22
same,Expression BB_Q32,hypothetical protein,14
same,Expression BB_Q33,hypothetical protein,147
same,Expression BB_Q38,hypothetical protein,0
same,Expression BB_Q39,hypothetical protein,0
same,Expression BB_Q54,hypothetical protein,1
same,Expression BB_Q62,hypothetical protein,1
same,Expression BB_Q0091,hypothetical protein,6
same,Expression BB_R20,hypothetical protein,73
same,Expression BB_R25,hypothetical protein,43
same,Expression BB_R26,hypothetical protein,393
same,Expression BB_R29,hypothetical protein,252
same,Expression BB_R31,hypothetical protein,0
same,Expression BB_R43,hypothetical protein,111
same,Expression BB_S06,hypothetical protein,0
same,Expression BB_S08,hypothetical protein,0
same,Expression BB_S11,hypothetical protein,0
same,Expression BB_S12,hypothetical protein,0
same,Expression BB_S13,hypothetical protein,0
same,Expression BB_S14,hypothetical protein,0
same,Expression BB_S18,hypothetical protein,0
same,Expression BB_S19,hypothetical protein,0
same,Expression BB_S20,hypothetical protein,0
same,Expression BB_S21,hypothetical protein,11
same,Expression BB_S25,hypothetical protein,120
same,Expression BB_S33,hypothetical protein,29
same,Expression BB_0316,integral membrane protein,36
same,Expression BB_0580,integral membrane protein,210
same,Expression BB_0193,lipoprotein,15
same,Expression BB_0628,lipoprotein,158
same,Expression BB_0664,lipoprotein,142
same,Expression BB_0832,lipoprotein,753
same,Expression BB_B27,lipoprotein,42
same,Expression BB_D10,lipoprotein,51
same,Expression BB_J36,lipoprotein,90
same,Expression mlpF BB_M28,lipoprotein,0
same,Expression la7 BB_0365,lipoprotein LA7,112
same,Expression BB_0593,long-chain-fatty-acid CoA ligase,24
same,Expression BB_0353,membrane protein,31
same,Expression BB_0759,membrane protein,1041
same,Expression BB_0143,membrane protein insertion efficiency factor,1085
same,Expression BB_0034,outer membrane protein P13,41
same,Expression BB_M01,phage portal protein,0
same,Expression pstC BB_0216,phosphate ABC transporter permease PstC,128
same,Expression BB_0727,phosphofructokinase,48
same,Expression BB_H29,plasmid partition protein,0
same,Expression proS BB_0402,proline--tRNA ligase,87
same,Expression bdrF BB_S29,protein BdrF,15
same,Expression bdrV BB_Q42,protein BdrV,1
same,Expression erpM BB_O40,protein ErpM,0
same,Expression BB_H13,protein RepU,3
same,Expression BB_A69,putative surface protein,98
same,Expression ksgA BB_0590,rRNA small subunit methyltransferase A,177
same,Expression dnaB BB_0111,replicative DNA helicase,144
same,Expression BB_0419,response regulator,34
same,Expression lepB BB_0263,signal peptidase I,98
same,Expression BB_0453,small conductance mechanosensitive ion channel,467
same,Expression BB_0641,spermidine/putrescine transport system permease,70
same,Expression BB_0153,superoxide dismutase,202
same,Expression BB_I39,surface antigen,8
same,Expression BB_0225,tRNA-dihydrouridine synthase A,194
same,Expression rho BB_0230,transcription termination factor Rho,22
same,Expression BB_0025,transcriptional regulator,272
same,Expression infA BB_0169,translation initiation factor IF-1,522
same,Expression ung BB_0053,uracil-DNA glycosylase,1626
same,Expression udk BB_0015,uridine kinase,37
same,Expression BB_0831,xylose operon regulatory protein,122
